Consider 3 molecules from patent publication US7723023B2, “Use of intrinsic reporters of cell signaling for high content drug profiling and toxicity screening” (Mount Sinai School of Medicine, priority 2001, dated 2010).

The test system of data set [1] is serotonin 5-HT2A receptor. Put plainly: Early gene expression in mouse somatosensory cortex after drug injection, real-time PCR. Format: in vivo. The conditions noted are these: 1 h after i.p. exposure.
Data set [2] has as its system human serotonin 5-HT2A receptor. Put plainly: Gene response landscape of IRCs in HEK293 cells expressing 5-HT2A receptor. The data set is classed as cell-based. The note with it: 10 genes, 8 concentrations, 1 hour, HEK293 cells expressing 5-HT2A receptors. The method, then: FIG. 6 is the gene response landscape for 5-HT and DOI in HEK293 cells expressing 5-HT2A receptors. The levels of gene induction in response to 8 concentrations of each agonist for 10 genes were determined in quadruplicate samples. The height of each peak represents the level of gene induction, expressed as fold-change. […] For example, the rightmost peak is highest with DOI exposure, but is lower with 5-HT exposure.
HEK293 cells were genetically engineered to stably express the human serotonin 5-HT2A receptor. Replicate aliquots of cells were treated with varying concentrations of 5-HT and DOI and the levels of a panel of IRCS after 1 hour exposure were determined by SYBR® green real-time PCR.

Data set [3] deals with PC12 cells that stably express the dopamine D2 receptor. The conditions noted are these: 200 μM H2O2, 1 h, PC12-D2R cells.
Procedure: Early genes β-actin, PC3, c-fos, and egr1 were assayed by real-time PCR.
Data set [4] deals with PC12 cells. Put plainly: Cell death of PC12 cells under oxidative stress (Caspase 3 activity, MTT assay). The data set is classed as cell-based, rat. The method, then:
(§1) This level of oxidative stress induced by H2O2 leads to cell death via apoptosis, as determined by increased Caspase 3 activity by 8 hours and a reduced MTT assay response at 24 hours. […] This would allow the prediction of the toxicity of a candidate drug in this cellular target by comparison of the pattern obtained with this drug to those observed with known toxins. Thus the toxins would generate a library of reference landscapes that would serve as predictors of the effects of candidate drugs. The comparison between candidate compounds and reference landscapes could be achieved by representing each IRC at one concentration as a different axis in a conceptual multidimensional space (or matrix) and determining the Euclidean distance between the location of the candidate response profile and that of the reference landscape. Candidates that are closer to the position of known toxins would be predicted to have a higher likelihood of inducing similar toxicity at the corresponding concentrations.

Data set [5] relates to PC12 cells. Put plainly: IRC (c-fos, egr1) response to cytotoxin in PC12 cells by real-time PCR. Format: cell-based, rat. The conditions noted are these: 200 μM H2O2, 1 hour exposure. The method, then:
The values shown are mean±s.e.m.
The samples assayed were the same as those used to generate FIG. 7.
as §1

On to `CCN(CC)C(=O)[C@@H]1C=C2c3cccc4[nH]cc(c34)C[C@H]2N(C)C1` [LSD], for which the “Induction of the 8 early genes in serotonin 5HT2A receptor gene-knockout mouse” value in data set [1] was “no induction was observed”.
In the case of `COc1cc(CC(C)N)c(OC)cc1I` (centres unmarked) [DOI], in data set [1], the “Induction of the 8 early genes in serotonin 5HT2A receptor gene-knockout mouse” value was “no induction was observed”. Besides, the “Level of gene induction (fold-change) compared with 5-HT” value in data set [2] is given as “generally lower responses”.
As for `OO` [H2O2], the “Early genes induced (β-actin, PC3, c-fos, egr1 assayed)” value in data set [3] was “Three genes were found to be induced at 1 h: PC3, c-fos, and egr1”. The MTT assay response result with PC12 cells [4] (200 μM H2O2, at 24 hours) was “reduced”. Moreover, the “Caspase 3 activity” value in the data set on PC12 cells [4] (200 μM H2O2, by 8 hours) is on record as “increased”. Further, in the data set with PC12 cells [5], the “cfos mRNA level” value is on record as “marked increase” and the “egr1 mRNA level” value is listed as “marked increase”.
